Experimental data as given in patent US20230174485A1, “LIPOXYGENASE INHIBITORS” (SRI International, priority 2020, published 2023).
Values joined by “and” are separate entries in the source; they are usually repeats but may differ in a detail not shown here. Equal values may be shown once. Read-outs that look alike come from different tables or passages of the source.

Tests used:
Type in all cases: biochemical
recombinant 5-LOX = target: T1, recombinant 5-LOX (Homo sapiens, UniProt P09917); assay: 5-LOX fluorescent assay; conditions: several values in one cell = repeat determinations; read-out: IC50 (μM) values for in vitro lipoxygenase inhibition, 5-LOX
T1 sequence (P09917 1-674): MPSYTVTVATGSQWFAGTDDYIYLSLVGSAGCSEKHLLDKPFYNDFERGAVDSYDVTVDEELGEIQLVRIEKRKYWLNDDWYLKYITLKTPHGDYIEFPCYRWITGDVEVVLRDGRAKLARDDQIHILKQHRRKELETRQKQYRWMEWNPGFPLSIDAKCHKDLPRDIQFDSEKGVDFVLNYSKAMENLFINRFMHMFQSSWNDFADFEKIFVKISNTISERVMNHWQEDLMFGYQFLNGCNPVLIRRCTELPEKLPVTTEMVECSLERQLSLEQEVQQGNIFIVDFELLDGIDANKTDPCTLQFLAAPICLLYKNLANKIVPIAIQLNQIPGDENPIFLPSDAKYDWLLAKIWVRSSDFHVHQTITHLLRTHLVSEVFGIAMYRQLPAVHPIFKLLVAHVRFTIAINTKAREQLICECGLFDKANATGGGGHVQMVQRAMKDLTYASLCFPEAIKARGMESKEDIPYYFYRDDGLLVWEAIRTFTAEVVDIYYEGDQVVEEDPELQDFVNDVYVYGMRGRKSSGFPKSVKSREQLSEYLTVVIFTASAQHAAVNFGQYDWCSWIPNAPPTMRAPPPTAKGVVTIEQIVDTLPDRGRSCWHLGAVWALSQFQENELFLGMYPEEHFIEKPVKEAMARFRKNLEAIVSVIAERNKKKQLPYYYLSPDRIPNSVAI
Experimental: 5-LOX FI assay Fluorescent Assay
The enzyme assay (100 μL) contained 50 mM Tris, pH 7.5, 0.1 mM EDTA, 0.3 mM CaCl2, 20 μM AA, 100 μM ATP, 1 μM DHR123, and recombinant 5-LOX cell lysate (0.5 μL/100 μL). Inhibitors (dissolved in DMSO) were plated at 1 μL into 96-well assay microplates followed by a 40 μL addition of a solution containing 5-LOX enzyme. Enzyme was pre-incubated with compounds for 15 mins. The assay was initiated by the addition of a 40 μL substrate solution containing AA and ATP, and 20 μL addition of a solution containing DHR123. Enzymatic reaction proceeded for 30 min with kinetic reading at 500 nm excitation & 536 nm emission in SpectraMax Paradigm (MolecularDevice). Percent inhibition was calculated for each compound dose for IC50 curve fitting using 4 Parameter Logistic Model or Sigmoidal Dose-Response Model.

[1] = target: T2, recombinant 12-LOX enzyme (Homo sapiens, UniProt P18054); assay: 12-LOX fluorescent assay; conditions: several values in one cell = repeat determinations; read-out: IC50 (μM) values for in vitro lipoxygenase inhibition, 12-LOX
T2 sequence (P18054 1-663): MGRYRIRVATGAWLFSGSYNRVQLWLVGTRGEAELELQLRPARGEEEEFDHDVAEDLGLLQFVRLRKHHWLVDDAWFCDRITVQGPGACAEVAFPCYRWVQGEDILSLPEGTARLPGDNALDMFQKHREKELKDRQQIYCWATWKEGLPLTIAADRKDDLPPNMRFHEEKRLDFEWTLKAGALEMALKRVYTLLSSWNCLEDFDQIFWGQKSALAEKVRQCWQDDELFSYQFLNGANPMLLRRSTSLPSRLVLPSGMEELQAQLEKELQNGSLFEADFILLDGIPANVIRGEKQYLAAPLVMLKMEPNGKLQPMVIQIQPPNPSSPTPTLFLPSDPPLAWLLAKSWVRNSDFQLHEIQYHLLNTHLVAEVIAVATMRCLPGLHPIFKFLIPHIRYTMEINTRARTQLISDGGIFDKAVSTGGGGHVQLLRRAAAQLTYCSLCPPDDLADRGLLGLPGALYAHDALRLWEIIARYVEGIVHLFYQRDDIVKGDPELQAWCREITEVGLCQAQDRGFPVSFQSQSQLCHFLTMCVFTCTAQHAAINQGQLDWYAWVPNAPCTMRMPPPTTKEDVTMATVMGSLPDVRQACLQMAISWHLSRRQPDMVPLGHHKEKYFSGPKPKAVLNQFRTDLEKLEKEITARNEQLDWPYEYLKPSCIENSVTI
Experimental: (§1) 12-LOX/15-LOX Fluorescent Assay
(§2) The enzyme assay (100 ul) contained 50 mM Tris, pH 7.5, 0.05% Tween-20, 20 μM AA/LA, 1 μM DHR123, and 100 nM recombinant 12-LOX enzyme/50 nM recombinant 15-LOX enzyme. Inhibitors (dissolved in DMSO) were plated at 1 μL into 96-well assay microplates followed by a 40 μL addition of a solution containing 12-LOX/15-LOX enzyme. Enzyme was pre-incubated with compounds for 15 mins. The assay was initiated by the addition of a 40 μL substrate solution containing AA/LA, and 20 μL addition of a solution containing DHR123. Enzymatic reaction proceeded for 30 min with kinetic reading at 500 nm excitation & 536 nm emission in SpectraMax Paradigm (MolecularDevice). Percent inhibition was calculated for each compound dose for IC50 curve fitting using 4 Parameter Logistic Model or Sigmoidal Dose-Response Model.

[2] = target: T3, recombinant 15-LOX enzyme (Homo sapiens, UniProt P16050); assay: 15-LOX fluorescent assay; conditions: several values in one cell = repeat determinations
T3 sequence (P16050 1-662): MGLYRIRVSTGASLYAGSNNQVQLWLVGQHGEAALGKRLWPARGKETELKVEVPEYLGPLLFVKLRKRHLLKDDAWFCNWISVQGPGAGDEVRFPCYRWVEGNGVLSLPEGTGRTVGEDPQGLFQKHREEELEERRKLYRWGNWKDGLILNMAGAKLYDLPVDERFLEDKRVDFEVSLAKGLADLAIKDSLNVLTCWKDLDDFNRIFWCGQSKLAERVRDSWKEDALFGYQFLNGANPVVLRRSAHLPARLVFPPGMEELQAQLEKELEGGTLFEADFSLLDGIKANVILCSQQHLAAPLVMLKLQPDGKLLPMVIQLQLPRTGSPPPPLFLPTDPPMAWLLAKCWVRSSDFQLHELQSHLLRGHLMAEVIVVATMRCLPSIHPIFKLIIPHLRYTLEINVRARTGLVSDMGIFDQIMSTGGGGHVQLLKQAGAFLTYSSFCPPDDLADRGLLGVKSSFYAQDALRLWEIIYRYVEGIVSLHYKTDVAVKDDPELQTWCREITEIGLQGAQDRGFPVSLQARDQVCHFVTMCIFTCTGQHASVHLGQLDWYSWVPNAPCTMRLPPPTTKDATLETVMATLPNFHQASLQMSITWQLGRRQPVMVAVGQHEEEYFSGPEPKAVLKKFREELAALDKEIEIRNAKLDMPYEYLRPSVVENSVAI
Experimental: as §1, §2

[3] = read-out: IC50 (μM) values for in vitro lipoxygenase inhibition, 15-LOX
[4] = IC50 (μM) values for in vitro lipoxygenase inhibition, 15-LOX

| SMILES | IC50 (recombinant 5-LOX) | IC50 [1] | IC50 [2, 3] | IC50 [2, 4] |
| --- | --- | --- | --- | --- |
| CN(C)CCOc1cccc2c1-c1[nH]c3ccccc3c1CS2 [SS20308-0046-01, 2-(6,11-dihydrothiochromeno[4,3-b]indol-1-yloxy)-N,N-dimethylethanamine] | 0.63 µM | 0.62 µM | 0.97 µM | – |
| CN(C)CCCNc1ccc2c(c1)Nc1ccccc1CC2 [SS20308-0270-01, N^1-(10,11-dihydro-5H-dibenzo[b,f]azepin-3-yl)-N^3,N^3-dimethylpropane-1,3-diamine] | 0.15 µM | 0.1 µM | 1.08 µM and 0.9 µM | – |
| Fc1cccc2c1[nH]c1cc3c(cc12)CCN3CCn1cncn1 [SS20308-0243-01, 1-(2-(1H-1,2,4-triazol-1-yl)ethyl)-8-fluoro-1,2,3,9-tetrahydropyrrolo[2,3-b]car bazole] | 0.2 µM | 0.03 µM | 1.13 µM | – |
| COc1ccc2c([nH]c3ccc(F)cc32)c1CCCN(C)C [SS20308-0118-01, 3-(6-fluoro-2-methoxy-9H-carbazol-1-yl)-N,N-dimethylpropan-1-amine] | 23.2 µM | 24.2 µM | – | 26.9 µM |
| COc1ccc2c([nH]c3ccc(F)cc32)c1OCCN(C)C [SS20308-0007-01, 2-(6-fluoro-2-methoxy-9H-carbazol-1-yloxy)-N,N-dimethylethanamine] | 32.2 µM | 22 µM | – | 8.64 µM |
| COc1cccc2c1[nH]c1ccc(F)cc12 [SS20308-0002-01, 6-fluoro-1-methoxy-9H-carbazole] | 20.8 µM | 8.04 µM | 4.33 µM | – |
| c1ccc(N(CCCn2cncn2)c2ccc3c(c2)[nH]c2ccccc23)cc1 [SS20308-0060-01, N-(3-(1H-1,2,4-triazol-1-yl)propyl)-N-phenyl-9H-carbazol-2-amine] | 0.62 µM | 0.99 µM | 2.19 µM | – |
| CN(C)CCOc1c(CNc2ccccc2)ccc2c1[nH]c1ccccc12 [SS20308-0086-01, N-((1-(2-(dimethylamino)ethoxy)-9H-carbazol-2-yl)methyl)aniline] | 0.62 µM | 0.87 µM | 0.42 µM | – |
| CN(C)CCOc1c(-c2ccccc2[N+](=O)[O-])ccc2c1[nH]c1ccccc12 [SS20308-0077-01, N,N-dimethyl-2-(2-(2-nitrophenyl)-9H-carbazol-1-yloxy)ethanamine] | 2.66 µM | 2.32 µM | 2.15 µM | – |
| Cc1cc(OCCn2cncn2)c2[nH]c3ccccc3c2c1 [SS20308-0017-01, 1-(2-(1H-1,2,4-triazol-1-yl)ethoxy)-3-methyl-9H-carbazole] | 6.06 µM | 2.85 µM | 3.49 µM | – |
| CN(C)CCc1cc(Nc2cccnc2)cc2c1[nH]c1ccccc12 [SS20308-0291-01, 1-(2-(dimethylamino)ethyl)-N-(pyridin-3-yl)-9H-carbazol-3-amine] | 0.06 µM and 0.12 µM | 0.05 µM and 0.06 µM | 0.02 µM and 0.16 µM | – |
| c1ccc(-c2c(NCCn3cncn3)ccc3c2[nH]c2ccccc23)cc1 [SS20308-0085-01, N-(2-(1H-1,2,4-triazol-1-yl)ethyl)-1-phenyl-9H-carbazol-2-amine] | 0.57 µM and 1.6 µM | 0.32 µM and 0.92 µM | – | 1.19 µM and 2.23 µM |
| CN(C)C(=O)CC(c1ccccc1)c1ccc2[nH]c3ccccc3c2c1 (stereo not drawn) [SS20308-0222-01, 3-(9H-carbazol-3-yl)-N,N-dimethyl-3-phenylpropanamide] | 10.9 µM | 14 µM | 4.53 µM | – |
| Fc1ccc2[nH]c3cc4c(c(F)c3c2c1)CCN4CCn1cncn1 [SS20308-0207-01, 1-(2-(1H-1,2,4-triazol-1-yl)ethyl)-4,6-difluoro-1,2,3,9-tetrahydropyrrolo[2,3-b]carbazole] | 0.59 µM | 0.1 µM | 1.15 µM | – |
| CN(C)CCOc1c2nc(-c3ccccc3)[nH]c2cc2[nH]c3ccccc3c12 [SS20308-0122-01, N,N-dimethyl-2-(2-phenyl-3,5-dihydroimidazo[4,5-b]carbazol-10-yloxy)ethanamine] | 1.02 µM | 0.87 µM | – | 1.38 µM |
| CN(C)CCOc1cc(Oc2ccccc2)cc2c1[nH]c1ccc(F)cc12 [SS20308-0054-01] | 6.83 µM | 7.6 µM | 1.82 µM | – |
| Clc1c(NCCn2cncn2)ccc2c1Nc1ccccc1CC2 [SS20308-0273-01, N-(2-(1H-1,2,4-triazol-1-yl)ethyl)-4-chloro-10,11-dihydro-5H-dibenzo [b,f]azepin-3-amine] | 5.6 µM | 2.66 µM | 9.82 µM | – |
| CN(C)CCOc1cc2c3ncccc3[nH]c2c2c1[nH]c1cccnc12 [SS20308-0070-01] | 9.17 µM | 6.32 µM | 4.53 µM | – |
| CN(C)CCCc1c(O)ccc2c1[nH]c1ccc(F)cc12 [SS20308-0068-01, 1-(3-(dimethylamino)propyl)-6-fluoro-9H-carbazol-2-ol] | 5.63 µM | 0.77 µM | – | 1.76 µM |
| Cc1cc2[nH]c3ccc(F)cc3c2cc1NCC1(Cn2cncn2)COC1 [SS20308-0233-01, N-((3-((1H-1,2,4-triazol-1-yl)methyl)oxetan-3-yl)methyl)-6-fluoro-2-methyl-9H-carbazol-3-amine] | 0.19 µM | 0.03 µM | 0.2 µM | – |
| CN(C)CCc1cc(Nc2ccc(F)cc2Cl)cc2c1[nH]c1ccccc12 [SS20308-0277-01, N-(2-chloro-4-fluorophenyl)-1-(2-(dimethylamino)ethyl)-9H-carbazol-3-amine] | 0.32 µM | 0.04 µM | 0.57 µM | – |
